Results: patent US20230406883A1, “COMPOUNDS AND THEIR USE IN TREATMENT OF TACHYKININ RECEPTOR MEDIATED DISORDERS” (Embark Biotech ApS, priority 2020, published 2023)
pEC50: −log10 of the molar value. Where “and” joins values, the source holds several entries; their conditions need not be identical. Equal entries are not always repeated. Where two headings read alike, the source gives them in different places. Numbered stars: 1 amine (or outer) side, 2 acyl side, 3 side chain; on linkers, the order of the positions; unused ones are H or OH. Square brackets hold non-standard residues; d marks the D form. Peptide text beside a SMILES is read from it. * marks the point of attachment. C18 diacid = O=C(O)CCCCCCCCCCCCCCCCC(=O)*; γGlu = O=C(O)[C@H](CCC(=O)[*:2])N[*:1]; NMeL = CN[C@@H](CC(C)C)C(=O)O; hSer = N[C@@H](CCO)C(=O)O; Nle = CCCC[C@H](N)C(=O)O; AEEA = NCCOCCOCC(=O)O

Tests used:
[1] = biological target: T1, hNK3R (Homo sapiens, UniProt P29371); experiment: IP3 assay (inositol trisphosphate, 3H-myoinositol) in transiently transfected COS-7 cells; format: cell-based; conditions: for pEC50: 0.2% ovalbumin buffer, read-out: hNK3, IP3 EC50
T1 construct: host or cells: COS-7
T1 sequence (P29371 1-465): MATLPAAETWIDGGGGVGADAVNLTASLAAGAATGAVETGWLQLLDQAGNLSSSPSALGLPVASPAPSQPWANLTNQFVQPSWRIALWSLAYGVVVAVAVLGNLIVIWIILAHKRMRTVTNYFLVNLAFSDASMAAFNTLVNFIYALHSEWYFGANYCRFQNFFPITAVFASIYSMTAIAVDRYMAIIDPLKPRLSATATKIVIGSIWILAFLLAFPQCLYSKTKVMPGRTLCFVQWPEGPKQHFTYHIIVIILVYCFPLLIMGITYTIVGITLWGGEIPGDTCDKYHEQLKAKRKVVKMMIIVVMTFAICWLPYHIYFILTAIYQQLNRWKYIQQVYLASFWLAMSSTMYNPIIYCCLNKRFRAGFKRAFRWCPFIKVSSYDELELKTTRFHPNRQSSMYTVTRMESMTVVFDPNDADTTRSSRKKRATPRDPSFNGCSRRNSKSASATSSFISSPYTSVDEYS
Summary of the method: (§1)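 COS-7 cells were transiently transfected with receptor plasmid and labelled with ³H-myo-inositol. Cells were lysed in formic acid, and ³H-inositol phosphates were captured on SPA YSI beads and counted.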

[2] = biological target: T2, hNK1R (Homo sapiens, UniProt P25103); experiment: as above; format: cell-based; conditions: for pEC50: 0.2% ovalbumin buffer
T2 construct: host or cells: COS-7
Summary of the method: as §1

[3] = biological target: T3, hNK2R (Homo sapiens, UniProt P21452); experiment: as above; format: cell-based; conditions: COS-7 cells; for pEC50: 0.2% ovalbumin buffer; for hNK2R, IP3 Efficacy: figure legends: percent of 10^-6 M NKA
T3 construct: host or cells: COS-7
T3 sequence (P21452 1-398): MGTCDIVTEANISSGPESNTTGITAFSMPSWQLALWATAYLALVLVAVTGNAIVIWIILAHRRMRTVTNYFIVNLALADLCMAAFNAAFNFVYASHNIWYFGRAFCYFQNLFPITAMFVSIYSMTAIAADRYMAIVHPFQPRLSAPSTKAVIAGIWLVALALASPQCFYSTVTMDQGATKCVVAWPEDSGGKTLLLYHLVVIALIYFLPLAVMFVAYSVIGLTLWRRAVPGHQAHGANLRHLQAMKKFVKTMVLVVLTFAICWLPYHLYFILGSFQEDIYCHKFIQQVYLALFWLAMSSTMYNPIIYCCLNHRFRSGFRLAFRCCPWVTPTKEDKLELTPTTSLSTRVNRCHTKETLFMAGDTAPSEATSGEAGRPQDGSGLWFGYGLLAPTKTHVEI
Summary of the method: as §1

[4] = biological target: T3, hNK2R; experiment: Hithunter cAMP assay (Gs-coupling) in transfected COS-7 cells; format: cell-based; conditions: COS-7 cells
Protocol: (§2) As a secondary measure of agonist-induced G-protein coupled receptor (GPCR) activation cyclin adenosine monophosphate (cAMP) was measured by the Hithunter cAMP-assay from DiscoverX. Assays were carried out using COS-7 cells transiently transfected by calcium phosphate transfection with a vector pcDNA3.1(+) encoding one of the indicated receptors (Genscript). Briefly, DNA mixed with CaCl2 (2 M) and TE-buffer (10 mM Tris-HCl, 1 mM EDTA, pH 7.5) was dropwise added to 2×HBS (50 mM HEPES, 280 mM NaCl, 1.5 mM NaH2PO4, pH 7.2) and incubated for 45 min at room temperature (22±2° C.). The mixture and a final concentration of 100 μM Chloroquine were added to the cells and left to incubate for 5 hours at 37° C. under standard cell culture conditions (10% CO2) before changing medium to fresh maintenance medium.
The cAMP-assay takes advantage of the tachykinin receptors' ability to induce production of the cAMP second messenger upon agonist (ligand) binding on receptor expressing cells. Production of cAMP stems from receptor coupling to Gs-protein although coupling to Gq-protein (IP3-production) is considered the primary signalling mechanism by tachykinin receptors.
The assay was performed the day after transfection. Briefly, maintenance medium was aspirated, and plates were washed ×1 in HBSS before adding assay buffer (HBSS+1 mM IBMX), pre-incubated for 30 min at 37° C. followed by 15 min incubation with agonist (ligand) at 37° C. After incubation, plates were subjected to cell lysis and anti-cAMP-antibody incubation as described by manufacturer. Luminescence was measured with EnVision Multimode Plate Reader from Perkin Elmer.

[5] = biological target: T3, hNK2R; experiment: 3H-NKA competitive binding on transfected COS-7 cells; conditions: competition with 3H-NKA, 4 h at 4 C
Protocol: as §2, with “Assays” for “As a secondary measure of agonist-induced G-protein coupled receptor (GPCR) activation cyclin adenosine monophosphate (cAMP) was measured by the Hithunter cAMP-assay from DiscoverX. Assays”
The ^3H-NKA binding assay measures peptide-receptor binding by a competitive principle of receptor binding between radioactively labelled (3H) NKA (tracer) and synthesized peptide ligands on live cells expressing the receptor of interest. Assay solutions used: TKR buffer (50 mM Tris/HCl pH 7.5, 5 mM MnCl2, and 150 mM NaCl), wash buffer (TKR buffer+0.2% w/v OvAlb), binding buffer (wash buffer+0.1 mg/ml Bacitracin), and tracer solution (binding buffer+˜15000 cpm/well ^3H-tracer). The assay was performed on ice the day after transfection.
Briefly, maintenance medium was aspirated, and plates were washed ×1 in cold wash buffer before adding 100 μl cold binding buffer and placing at 4° C. to let plates cool. The cold plates were added indicated peptides (ligand) immediately followed by addition of cold tracer solution (˜15000 cpm/well). Plates were immediately moved to 4° C. and incubated for 4 hours. After incubation, binding was stopped by wash ×2 with cold wash buffer before adding 225 μl Ultima Gold XR. Plates were shaken at medium speed for approximately 30 min and left overnight at room temperature before counting the plates in a MicroBeta plate counter (Perkin Elmer).

[6] = COS-7 cells, figure legends: percent of 10^-6 M NKA

T2 sequence (P25103 whole entry): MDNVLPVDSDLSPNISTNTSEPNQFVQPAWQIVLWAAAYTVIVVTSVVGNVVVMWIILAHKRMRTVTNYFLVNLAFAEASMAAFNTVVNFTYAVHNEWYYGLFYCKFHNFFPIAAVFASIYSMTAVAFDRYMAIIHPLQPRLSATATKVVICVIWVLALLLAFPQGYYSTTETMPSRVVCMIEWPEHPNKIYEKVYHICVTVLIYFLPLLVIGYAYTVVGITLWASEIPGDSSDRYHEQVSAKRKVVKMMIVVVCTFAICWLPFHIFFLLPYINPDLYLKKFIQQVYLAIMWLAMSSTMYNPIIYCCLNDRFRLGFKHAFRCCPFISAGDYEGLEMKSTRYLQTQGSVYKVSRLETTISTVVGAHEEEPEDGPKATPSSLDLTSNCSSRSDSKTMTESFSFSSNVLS

| Compound | hNK3, IP3 Efficacy [1, 6] [%] | hNK1R, IP3 Efficacy [2, 6] | pEC50 [3] | hNK2R, IP3 Efficacy [3] | pEC50 [4] | hNK2R, cAMP Efficacy [4] [%] | pEC50 [5] | hNK3, IP3 Efficacy [1] [%] | hNK1R, IP3 Efficacy [2] [%] | pEC50 ([2]; COS-7 cells) | pEC50 ([1]; COS-7 cells) |
| --- | --- | --- | --- | --- | --- | --- | --- | --- | --- | --- | --- |
| CC(C)C[C@@H](C(=O)N[C@@H](Cc1ccccc1)C(N)=O)N(C)C(=O)CNC(=O)[C@@H](NC(=O)[C@H](Cc1ccc(O)cc1)NC(=O)[C@H](CCCCN)NC(=O)[C@H](CC(=O)O)NC(=O)COCCOCCNC(=O)COCCOCCNC(=O)CC[C@H](NC(=O)CCCCCCCCCCCCCCCCC(=O)O)C(=O)O)C(C)C [compound 353, *Asp;Lys;Tyr;Val;Gly;NmLeu;Phe;NH2] ({C18 diacid-γGlu-AEEA-AEEA}-DKYVG[NMeL]F-NH2) | 0 | 20% | 8.60 | 90% | ~8.89 | 50 | 7.57 |  |  |  |  |
| COCC[C@H](NC(=O)[C@H](CC(C)C)NC(=O)[C@@H](CO)NC(=O)[C@@H](NC(=O)[C@H](Cc1ccc(O)cc1)NC(=O)[C@H](CCCCN)NC(=O)[C@H](CC(=O)O)NC(=O)COCCOCCNC(=O)COCCOCCNC(=O)CC[C@H](NC(=O)CCCCCCCCCCCCCCCCC(=O)O)C(=O)O)C(C)C)C(N)=O [compound 396, *Asp;Lys;Tyr;Val;dSer;Leu;Metox;NH2] ({C18 diacid-γGlu-AEEA-AEEA}-DKYV[dS]L[hSer](Me)-NH2) | 0 | 0% | 7.70 | 92% |  |  | 6.50 |  |  |  |  |
| COCC[C@H](NC(=O)[C@H](CC(C)C)NC(=O)CNC(=O)[C@@H](NC(=O)[C@H](Cc1ccc(O)cc1)NC(=O)[C@H](CCCCN)NC(=O)[C@H](CC(=O)O)NC(=O)COCCOCCNC(=O)COCCOCCNC(=O)CC[C@H](NC(=O)CCCCCCCCCCCCCCCCC(=O)O)C(=O)O)C(C)C)C(N)=O [compound 393, *Asp;Lys;Tyr;Val;Gly;Leu;Metox;NH2] ({C18 diacid-γGlu-AEEA-AEEA}-DKYVGL[hSer](Me)-NH2) | 36 | 52% | 8.00 | 100% |  |  | 7.40 | 30 | 50 | 6.47 and 5.47 |  |
| CCCC[C@H](NC(=O)[C@H](CC(C)C)NC(=O)CNC(=O)[C@@H](NC(=O)[C@H](Cc1ccc(O)cc1)NC(=O)[C@H](CCCCN)NC(=O)[C@H](CC(=O)O)NC(=O)COCCOCCNC(=O)COCCOCCNC(=O)CC[C@H](NC(=O)CCCCCCCCCCCCCCCCC(=O)O)C(=O)O)C(C)C)C(N)=O [compound 392, *Asp;Lys;Tyr;Val;Gly;Leu;Nle;NH2] ({C18 diacid-γGlu-AEEA-AEEA}-DKYVGL[Nle]-NH2) | 0 | 52% and 30% | 8.27 | 72% and 70% |  |  | 7.60 |  |  | 6.69 and 6.70 |  |
| CCCC[C@H](NC(=O)[C@H](CC(C)C)N(C)C(=O)CNC(=O)[C@@H](NC(=O)[C@H](Cc1ccc(O)cc1)NC(=O)[C@H](CCCCN)NC(=O)[C@@H](N)CC(=O)O)C(C)C)C(N)=O [compound 374, Asp;Lys;Tyr;Val;Gly;NmLeu;Nle;NH2] (H-DKYVG[NMeL][Nle]-NH2) | 0 | 50% | 8.24 | 90% |  |  |  |  |  | 6.70 |  |
| CCCC[C@H](NC(=O)[C@H](CC(C)C)N(C)C(=O)CNC(=O)[C@@H](NC(=O)[C@H](Cc1ccccc1)NC(=O)[C@H](CO)NC(=O)[C@H](CC(=O)O)NC(=O)[C@@H](NC(=O)[C@H](CCCCN)NC(=O)COCCOCCNC(=O)COCCOCCNC(=O)CC[C@H](NC(=O)CCCCCCCCCCCCCCCCC(=O)O)C(=O)O)[C@@H](C)O)C(C)C)C(N)=O [compound 312, *Lys;Thr;Asp;Ser;Phe;Val;Gly;NmLeu;Nle;NH2] | 80 | 44% | 7.60 | 65% |  |  |  |  |  | ~6.75 | 6.29 |
| COCC[C@H](NC(=O)[C@H](CC(C)C)N(C)C(=O)CNC(=O)[C@@H](NC(=O)[C@H](Cc1ccccc1)NC(=O)[C@H](CCCCN)NC(=O)[C@H](CC(=O)O)NC(=O)COCCOCCNC(=O)COCCOCCNC(=O)CC[C@H](NC(=O)CCCCCCCCCCCCCCCCC(=O)O)C(=O)O)C(C)C)C(N)=O [compound 384, *Asp;Lys;Phe;Val;Gly;NmLeu;Metox;NH2] ({C18 diacid-γGlu-AEEA-AEEA}-DKFVG[NMeL][hSer](Me)-NH2) | 85 | 80% | 9.05 | 95% |  |  |  |  |  | 7.80 | 8.00 |
| CCCC[C@H](NC(=O)[C@H](CC(C)C)N(C)C(=O)CNC(=O)[C@H](CCCNC(=N)N)NC(=O)[C@H](Cc1ccc(O)cc1)NC(=O)[C@H](CCCCN)NC(=O)[C@H](CCC(=O)O)NC(=O)COCCOCCNC(=O)COCCOCCNC(=O)CC[C@H](NC(=O)CCCCCCCCCCCCCCCCC(=O)O)C(=O)O)C(N)=O [compound 314, *Glu;Lys;Tyr;Arg;Gly;NmLeu;Nle;NH2] ({C18 diacid-γGlu-AEEA-AEEA}-EKYRG[NMeL][Nle]-NH2) | 0 | 0% | ~5.51 | 45% |  |  |  |  |  |  |  |
| CCCC[C@H](NC(=O)[C@H](CC(C)C)N(C)C(=O)CNC(=O)[C@@H](NC(=O)[C@H](Cc1ccccc1)NC(=O)[C@H](CCCCN)NC(=O)[C@H](CCC(=O)O)NC(=O)COCCOCCNC(=O)COCCOCCNC(=O)CC[C@H](NC(=O)CCCCCCCCCCCCCCCCC(=O)O)C(=O)O)[C@@H](C)O)C(N)=O [compound 397, *Glu;Lys;Phe;Thr;Gly;NmLeu;Nle;NH2] ({C18 diacid-γGlu-AEEA-AEEA}-EKFTG[NMeL][Nle]-NH2) | 0 | 0% | 7.55 | 75% |  |  |  |  |  |  |  |
